Assays:
[1] = tested on: acetaminophen (APAP) in mice; experiment: Hepatoprotective activity, prophylactic study, acetaminophen (APAP) after diethyl-ether; format: in vivo
[2] = tested on: D-Galactosamine (Gal N) induced hepatic injury in rats; experiment: Hepatoprotective activity, curative study, D-Galactosamine; format: in vivo
[3] = 25 mg/kg p.o. + APAP, prophylactic
[4] = 50 mg/kg p.o. + APAP, prophylactic
[5] = 100 mg/kg p.o. + APAP, prophylactic
[6] = TCA alone 100 mg/kg p.o., no APAP, prophylactic study
[7] = 12.5 mg/kg p.o. + Gal N, curative
[8] = 25 mg/kg p.o. + Gal N, curative
[9] = 50 mg/kg p.o. + Gal N, curative
[10] = TCA alone 50 mg/kg p.o., no Gal N, curative study

Question: What does the source list for `CCCCCCCC/C=C/CCCCCCCCCCCCCC(=O)O` [TCA, t-Tetracos-15-enoic acid]?
Answer: Serum ALP, hepatoprotective activity percent [1, 3]: (34.15 ± 5.39) percent; Serum GOT [1, 3]: 880.10 ± 60.29 Units; Serum GOT, hepatoprotective activity percent [1, 3]: (41.26 ± 4.72) percent; Serum GPT [1, 3]: 1696.53 ± 48.31 Units; Serum GPT, hepatoprotective activity percent [1, 3]: (41.57 ± 1.86) percent; Serum Triglycerides [1, 3]: 13.47 ± 0.89 mg %; Serum Triglycerides, hepatoprotective activity percent [1, 3]: (43.32 ± 10.80) percent; Serum ALP [1, 4]: 41.44 ± 1.27 μmole of p-nitrophenel formed/min/L; Serum ALP, hepatoprotective activity percent [1, 4]: (49.04 ± 3.94) percent; Serum GOT [1, 4]: 619.36 ± 88.89 Units; Serum GOT, hepatoprotective activity percent [1, 4]: (61.67 ± 6.96) percent; Serum GPT [1, 4]: 1066.99 ± 118.14 Units; Serum GPT, hepatoprotective activity percent [1, 4]: (65.82 ± 4.55) percent; Serum Triglycerides [1, 4]: 12.34 ± 0.85 mg %; Serum Triglycerides, hepatoprotective activity percent [1, 4]: (56.84 ± 10.23) percent; Serum ALP [1, 5]: 35.08 ± 2.18 μmole of p-nitrophenel formed/min/L; Serum ALP, hepatoprotective activity percent [1, 5]: (68.82 ± 6.78) percent; Serum GOT [1, 5]: 310.53 ± 45.32 Units; Serum GOT, hepatoprotective activity percent [1, 5]: (85.85 ± 4.25) percent; Serum GPT [1, 5]: 539.60 ± 51.65 Units; Serum GPT, hepatoprotective activity percent [1, 5]: (86.13 ± 1.99) percent; Serum Triglycerides [1, 5]: 10.87 ± 0.69 mg %; Serum Triglycerides, hepatoprotective activity percent [1, 5]: (74.48 ± 8.37) percent; Serum ALP [1, 6]: 27.15 ± 2.92 μmole of p-nitrophenel formed/min/L; Serum GOT [1, 6]: 106.86 ± 30.15 Units; Serum GPT [1, 6]: 146.00 ± 32.15 Units; Serum Triglycerides [1, 6]: 7.77 ± 0.56 mg %; Serum ALP [2, 7]: 46.03 ± 2.35^NS μmole of p-niotrophenol formed/min/L; Serum ALP, hepatoprotective activity percent [2, 7]: (43.65 ± 6.96) percent; Serum Bilirubin [2, 7]: 0.56 ± 0.03 mg %; Serum Bilirubin, hepatoprotective activity percent [2, 7]: (46.75 ± 3.74) percent; Serum GOT [2, 7]: 494.53 ± 41.13 Units; Serum GOT, hepatoprotective activity percent [2, 7]: (34.12 ± 6.65) percent; Serum GPT [2, 7]: 578.14 ± 57.37 Units; Serum GPT, hepatoprotective activity percent [2, 7]: (40.40 ± 7.08) percent; Serum Triglycerides [2, 7]: 11.85 ± 0.75^NS mg %; Serum Triglycerides, hepatoprotective activity percent [2, 7]: (32.78 ± 8.37) percent; Serum ALP [2, 8]: 38.87 ± 2.62 μmole of p-niotrophenol formed/min/L; Serum ALP, hepatoprotective activity percent [2, 8]: (64.83 ± 7.74) percent; Serum Bilirubin [2, 8]: 0.46 ± 0.03 mg %; Serum Bilirubin, hepatoprotective activity percent [2, 8]: (59.74 ± 4.04) percent; Serum GOT [2, 8]: 449.93 ± 31.58 Units; Serum GOT, hepatoprotective activity percent [2, 8]: (41.37 ± 5.10) percent; Serum GPT [2, 8]: 518.66 ± 42.64 Units; Serum GPT, hepatoprotective activity percent [2, 8]: (47.74 ± 5.26) percent; Serum Triglycerides [2, 8]: 10.48 ± 0.91^NS mg %; Serum Triglycerides, hepatoprotective activity percent [2, 8]: (46.11 ± 9.77) percent; Serum ALP [2, 9]: 36.94 ± 1.87 μmole of p-niotrophenol formed/min/L; Serum ALP, hepatoprotective activity percent [2, 9]: (71.88 ± 5.54) percent; Serum Bilirubin [2, 9]: 0.35 ± 0.02 mg %; Serum Bilirubin, hepatoprotective activity percent [2, 9]: (73.16 ± 2.95) percent; Serum GOT [2, 9]: 391.66 ± 29.53 Units; Serum GOT, hepatoprotective activity percent [2, 9]: (50.76 ± 4.78) percent; Serum GPT [2, 9]: 412.17 ± 31.17 Units; Serum GPT, hepatoprotective activity percent [2, 9]: (60.88 ± 3.85) percent; Serum Triglycerides [2, 9]: 9.23 ± 0.59 mg %; Serum Triglycerides, hepatoprotective activity percent [2, 9]: (61.84 ± 6.59) percent; Serum ALP [2, 10]: 24.45 ± 2.76 μmole of p-niotrophenol formed/min/L; Serum Bilirubin [2, 10]: 0.19 ± 0.02 mg %; Serum GOT [2, 10]: 91.07 ± 10.50 Units; Serum GPT [2, 10]: 105.02 ± 18.74 Units; Serum Triglycerides [2, 10]: 6.44 ± 0.38 mg %
